In patent US11149052B2, “2′3′-cyclic dinucleotides” (Institute of Organic Chemistry and Biochemistry, ASCR, V.V.I, priority 2018, dated 2021):

What was measured:
[1] = target: T1, WT STING (truncated human WT STING protein) (Homo sapiens, UniProt Q86WV6, H232R); test: Differential Scanning Fluorimetry with WT STING; format: binding; settings: thermal shift vs apoprotein, 150 μM CDN, 0.1 mg/ml STING protein, SYPRO Orange; for ΔTm at 150 µM: read-out: DSF ΔTm (° C.) WT STING
T1 construct: truncated human WT STING or AQ STING (amino acid residues 140-343); 8xHis (N, cleaved yes); SUMO (N, cleaved yes); made in house; host or cells: E. coli Rosetta-gami B (DE3)
T1 sequence (Q86WV6 140-343 H232R): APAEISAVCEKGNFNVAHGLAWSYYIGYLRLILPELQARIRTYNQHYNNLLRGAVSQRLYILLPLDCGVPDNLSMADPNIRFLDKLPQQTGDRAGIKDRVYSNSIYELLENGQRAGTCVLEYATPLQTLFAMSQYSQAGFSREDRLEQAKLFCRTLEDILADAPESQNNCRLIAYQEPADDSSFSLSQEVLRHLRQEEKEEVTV
Protocol: (§1) Purified PCR products were cleaved with restriction enzymes BamHI (cat. #R0136S, NEB, Ipswich, USA) and NotI (cat. #R0189S, NEB, Ipswich, USA) and cloned into the pSUMO vector linearized with the identical enzymes.
(§2) DNase I (cat. #D5025, Sigma Aldrich, Czech Republic) and RNase A (cat. #R6513, Sigma Aldrich, Czech Republic) were added (final concentration […]) together with MgCl2 (final concentration 5 mmol·l^−1) to the homogenate and bacteria were lysed using French Press G-M™ High-Pressure Cell Press Homogenizer (1500 psi, 3 cycles). […] The resin was poured into a chromatography column, washed with 50 ml buffer A (50 mmol·l^−1 TrisCl (pH 8.0), 800 mmol·l^−1 NaCl, 3 mmol·l^−1β-mercaptoethanol; 10% glycerol; 20 mmol·l^−1 imidazole) and 8-His-SUMO tagged STING proteins were eluted with 15 ml buffer A containing 300 mmol·l^−1 imidazole. […] Proteins were concentrated with Amicon® Ultra-15 10 K device (cat. #UFC901008, Merck Millipore, Billerica, USA) and flash frozen in liquid N2.
(§3) Differential Scanning Fluorimetry with WT STING and AQ STING
(§4) 20 μL solutions of the reaction mixtures were pipetted in triplicates into 96 well optical reaction plates and thermal denaturation of samples were performed on real time PCR cycler (LightCycler® 480 Instrument II—Roche, Base^1, Switzerland). The first derivative of the thermal denaturation curves was performed to calculate denaturing temperatures of STING-CDN complexes and STING apoproteins. The thermal shift for each CDN was calculated by subtracting the average denaturing temperature of STING apoprotein from the average denaturing temperature of STING CDN complex.

[2] = target: T2, AQ STING (truncated human STING G230A-R293Q allelic form) (Homo sapiens, UniProt Q86WV6, G230A/H232R/R293Q); test: Differential Scanning Fluorimetry with AQ STING; format: binding; settings: thermal shift vs apoprotein, 150 μM CDN, 0.1 mg/ml STING protein, SYPRO Orange; for ΔTm at 150 µM: read-out: DSF ΔTm (° C.) AQ STING
T2 construct: truncated human WT STING or AQ STING (amino acid residues 140-343); 8xHis (N, cleaved yes); SUMO (N, cleaved yes); made in house; host or cells: E. coli Rosetta-gami B (DE3)
T2 sequence (Q86WV6 140-343 G230A/H232R/R293Q): as the sequence (Q86WV6 140-343 H232R) above, with G91A, R154Q counted along it
Protocol: as §1, §2, §3, §4

[3] = target: human wild type STING (WT STING) (Homo sapiens, UniProt Q86WV6, H232R); test: Digitonin assay using 293T wtSTING-FL reporter cells (ISRE firefly luciferase reporter); format: cell-based; settings: 293T wtSTING-FL cells; 30 min in Digitonin buffer, then 5 hours; luciferase read-out; 8-point dose-response curve; read-out: Digitonin assay EC50 (μmol · l^−1) WT STING
human wild type STING (WT STING), sequence (Q86WV6 whole entry H232R): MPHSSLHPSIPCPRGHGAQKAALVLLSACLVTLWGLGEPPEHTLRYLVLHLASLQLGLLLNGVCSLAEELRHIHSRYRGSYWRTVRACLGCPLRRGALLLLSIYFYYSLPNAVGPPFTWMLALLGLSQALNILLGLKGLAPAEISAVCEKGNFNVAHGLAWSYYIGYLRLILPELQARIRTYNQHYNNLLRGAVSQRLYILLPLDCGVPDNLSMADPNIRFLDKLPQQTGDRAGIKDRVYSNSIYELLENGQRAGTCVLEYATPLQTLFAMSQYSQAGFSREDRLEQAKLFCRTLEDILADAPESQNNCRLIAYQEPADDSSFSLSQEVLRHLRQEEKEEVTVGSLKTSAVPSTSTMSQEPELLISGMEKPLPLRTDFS
Text: Two complementary oligonucleotides of the sequence […] […] […] […] […] The oligonucleotides were mixed in equal molar amounts, hybridized, and cleaved by restriction endonucleases HindIII (cat. #. R0104S, NEB, Ipswich, USA) and BglII (cat. #R0144S, NEB, Ipswich, USA). Ultimately, they were ligated into plasmid pGL4.27 (cat. #E6651, Promega, Madison, USA) linearized with the same enzymes. As result the sequence with four ISRE sites was placed upstream of the minimum promoter of firefly luciferase reporter gene.
After 5 minutes incubation at room temperature (RT), 250 μL of the mixture was added dropwise to the cells in one well.
Transfected cells were seeded onto poly-D-lysine coated six well plates at density 50,000 cells per 1 cm^2 in DMEM medium with high glucose containing 10% heat inactivated FBS, 30 μg/mL blasticidin (cat. #ant-bl-05, InvivoGen, San Diego, USA), 0.06 mg/ml Penicillin G and 0.1 mg/ml Streptomycin Sulfate (both cat. #. L0018, Biowest, Riverside, USA). The medium was replenished every 3-4 days until visible colonies of cells resistant to blasticidin were formed.
Blasticidin resistant cells stably expressing WT STING were further transfected with […] plasmid following the same procedure as described above. […] Homogeneous culture of stably double transfected cells was prepared by limiting dilution of cells in 96 well plates and wells with cells were selected that originated from a single cell.
The medium was removed next day and three fold serial dilutions of compounds in Digitonin buffer containing 50 mmol·l^−1 HEPES (cat. #H3375, Sigma Aldrich, Czech Republic) pH 7.0, 100 mmol·l^−1 KCl, 3 mmol·l^−1 MgCl2, 0.1 mmol·l^−1 DTT (cat. #D0632, Sigma Aldrich, Czech Republic), 85 mmol·l^−1 Sucrose (cat. #S7903, Sigma Aldrich, Czech Republic), 0.2% BSA (cat. #A2153, Sigma Aldrich, Czech Republic), 1 mmol·l^−1 ATP (cat. #A1852, Sigma Aldrich, Czech Republic), 0.1 mmol·l^−1 GTP (cat. #G8877, Sigma Aldrich, Czech Republic), and 10 μg/mL Digitonin A (cat. #D141, Sigma Aldrich, Czech Republic) were added to the cells. The buffer was removed after 30 minutes incubation at 37° C. with 5% CO2, the cells were washed once with 100 μl of cultivation medium, and 100 IA of medium was added to each well. The plates with cells were incubated for 5 hours at 37° C. with 5% CO2, 50 μl of the medium was removed and 30 μl of ONE-Glo™ Luciferase Assay System reagent (cat. #E6120, Promega, Madison, USA) was added to each well. Luminesce was read on Synergy H1 (Biotek, Winooski, USA).

Structure (SMILES) | ΔTm at 150 µM [1] [°C] | ΔTm at 150 µM [2] [°C] | EC50 [3] [nM] | DSF ΔTm (° C.) WT STING [1] [°C] | DSF ΔTm (° C.) AQ STING [2] [°C]
Nc1ncnc2c1ncn2[C@@H]1O[C@@H]2COP(=O)(O)CO[C@H]3[C@H](O)[C@@H](COP(=O)(O)CO[C@H]2[C@@H]1O)O[C@H]3n1cnc2c(N)ncnc21 [Example 13, (1S,7R,9R,10S,11S,17R,19R,20R)-9,19-bis(6-amino-9H-purin-9-yl)-4,10,14,20-tetrahydroxy-2,5,8,12,15,18-hexaoxa-4λ^5,14λ^5-diphosphatricyclo[15.2.1.0^7,^11]icosane-4,14-dione] | 0 | 0.2 | > 50000 |  | 
Nc1nc2c(ncn2[C@@H]2O[C@@H]3COP(=O)(O)CO[C@H]4[C@@H](F)[C@H](n5cnc6c(N)ncnc65)O[C@@H]4COP(=O)(O)O[C@@H]2[C@@H]3O)c(=O)[nH]1 [Example 10, (1R,6R,8R,9R,10R,16R,18R,19R)-18-(2-amino-6-oxo-6,9-dihydro-1H-purin-9-yl)-8-(6-amino-9H-purin-9-yl)-9-fluoro-3,13,19-trihydroxy-2,4,7,11,14,17-hexaoxa-3λ^5,13λ^5-diphosphatricyclo[14.2.1.0^6,^10]nonadecane-3,13-dione] | 20.9 | 27 | 20 |  | 
Nc1ncnc2c1ncn2[C@@H]1O[C@@H]2COP(=O)(O)O[C@@H]3[C@H](F)[C@@H](COP(=O)(O)CO[C@H]2[C@H]1F)O[C@H]3n1cnc2c(N)ncnc21 [Example 22, (1S,6R,8R,9R,10R,16R,18R,19R)-8,18-bis(6-amino-9H-purin-9-yl)-9,19-difluoro-3,13-dihydroxy-2,4,7,11,14,17-hexaoxa-3λ^5,13λ^5-diphosphatricyclo[14.2.1.0^6,^10]nonadecane-3,13-dione] | 9 | 11.1 | 15 |  | 
Nc1nc2c(ncn2[C@@H]2O[C@@H]3COP(=O)(O)O[C@@H]4[C@H](O)[C@@H](COP(=O)(O)O[C@@H]2[C@@H]3O)O[C@H]4n2cnc3c(N)ncnc32)c(=O)[nH]1 [2′2′-cGAMP, reference compound] |  |  | 30 | 11.5 | 19.4
Nc1nc(N)c2ncn([C@@H]3O[C@@H]4COP(=O)(O)CO[C@H]5[C@@H](O)[C@H](n6cnc7c(N)ncnc76)O[C@@H]5COP(=O)(O)O[C@@H]3[C@@H]4F)c2n1 [Example 25, (1S,6R,8R,9R,10S,16R,18R,19R)-8-(6-amino-9H-purin-9-yl)-18-(2,6-diamino-9H-purin-9-yl)-19-fluoro-3,9,13-trihydroxy-2,4,7,11,14,17-hexaoxa-3λ^5,13λ^5-diphosphatricyclo[14.2.1.0^6,^10]nonadecane-3,13-dione] | 10.6 | 17.5 | 53 |  | 
Nc1nc2c(ncn2[C@@H]2O[C@@H]3COP(=O)(O)CO[C@H]4[C@@H](O)[C@H](n5cnc6c(N)ncnc65)O[C@@H]4COP(=O)(O)O[C@@H]2[C@@H]3F)c(=O)[nH]1 [Example 19, (1S,6R,8R,9R,10S,16R,18R,19R)-18-(2-amino-6-oxo-6,9-dihydro-1H-purin-9-yl)-8-(6-amino-9H-purin-9-yl)-19-fluoro-3,9,13-trihydroxy-2,4,7,11,14,17-hexaoxa-3λ^5,13λ^5-diphosphatricyclo[14.2.1.0^6,^10]nonadecane-3,13-dione] | 18.2 | 25.1 | 2 |  | 
Nc1nc2c(ncn2[C@@H]2O[C@@H]3COP(=O)(O)CO[C@@H]4[C@H](O)[C@@H](COP(=O)(O)O[C@H]3[C@H]2F)O[C@H]4n2cnc3c(N)ncnc32)c(=O)[nH]1 [Example 7, (1R,6R,7R,8R,10R,16R,17R,19R)-8-(2-amino-6-oxo-6,9-dihydro-1H-purin-9-yl)-17-(6-amino-9H-purin-9-yl)-7-fluoro-4,13,19-trihydroxy-3,5,9,12,15,18-hexaoxa-4λ^5,13λ^5-diphosphatricyclo[14.2.1.0^6,^10]nonadecane-4,13-dione] | 1.8 | 8.9 | 6100 |  | 
Nc1nc2c(ncn2[C@@H]2O[C@@H]3COP(=O)(O)O[C@H]4[C@@H](F)[C@H](n5cnc6c(N)ncnc65)O[C@@H]4COP(=O)(O)CO[C@@H]2[C@@H]3O)c(=O)[nH]1 [Example 4, (1R,6R,7R,8R,10R,16R,17R,19R)-17-(2-amino-6-oxo-6,9-dihydro-1H-purin-9-yl)-8-(6-amino-9H-purin-9-yl)-7-fluoro-4,13,19-trihydroxy-3,5,9,12,15,18-hexaoxa-4λ^5,13λ^5-diphosphatricyclo[14.2.1.0^6,^10]nonadecane-4,13-dione] | 7.3 | 16 | 20 |  | 
Nc1nc2c(ncn2[C@@H]2O[C@@H]3COP(=O)(O)CO[C@H]4[C@H](O)[C@H](n5cnc6c(N)ncnc65)O[C@@H]4COP(=O)(O)O[C@@H]2[C@@H]3O)c(=O)[nH]1 [Example 16, (1R,6R,8R,9S,10S,16R,18R,19R)-18-(2-amino-6-oxo-6,9-dihydro-1H-purin-9-yl)-8-(6-amino-9H-purin-9-yl)-3,9,13,19-tetrahydroxy-2,4,7,11,14,17-hexaoxa-3λ^5,13λ^5-diphosphatricyclo[14.2.1.0^6,^10]nonadecane-3,13-dione] | 15.8 | 18.7 | 40 |  | 
Nc1ncnc2c1ncn2[C@@H]1O[C@@H]2COP(=O)(O)O[C@H]3[C@@H](O)[C@H](n4cnc5c(N)ncnc54)O[C@@H]3COP(=O)(O)O[C@H]2[C@H]1O [3′3′-c-di-AMP, reference compound] |  |  | 300 | 2.6 | 9.3
Nc1ncnc2c1ncn2[C@@H]1O[C@@H]2COP(=O)(O)O[C@@H]3[C@H](O)[C@@H](COP(=O)(O)CO[C@H]2[C@H]1O)O[C@H]3n1cnc2c(N)ncnc21 [Example 8, (1R,6R,8R,9R,10S,16R,18R,19R)-8,18-bis(6-amino-9H-purin-9-yl)-3,9,13,19-tetrahydroxy-2,4,7,11,14,17-hexaoxa-3λ^5,13λ^5-diphosphatricyclo[14.2.1.0^6,^10]nonadecane-3,13-dione] | 3 | 9.4 | 400 |  | 
